# Marks after values point to notes of the source that are not given here.
# What was measured:
# [1] = test system: rats with common carotid artery occlusion-induced vascular dementia; test: Water maze test, common carotid artery occlusion-induced vascular dementia rats; assay type: in vivo, rat; conditions: succinate; for orientation angle for reaching the platform / speed for reaching the platform / swimming path length for reaching the platform / time for reaching the platform: x ± s; for Average speed / Number of crossing the platform / Orientation angle / Swimming path length in the platform area/total swimming path length × 100% / Time in the platform area / Time in the platform quadrants: Day 7
# Text: (§1) A rat blood vessel dementia model was made according to the references [ZHAO Xian-lin, FANG Xiu-bin, LI Dong-pei. Establishment of Vascular Dementia Model in Rats, J Chin Med Univ, 2002, 31 (3): 166-168; WANG Yong-yan, Zhang Bo-li, Editor-in-chief. Modern Chinese Medicine Clinic and Research on Vascular Dementia, People's Medical Publishing House, October 2003, First Version 214]: Chloral hydrate 0.4 g/kg was intraperitoneally injected for anesthetizing rats, and bilateral common carotid arteries were isolated and ligated. The animals were fed for 16 weeks, divided into groups on the last 7 days, and administered. The normal control group and the model group were administrated through the intragastric route with distilled water by 0.5 ml/100 g, the positive control group was administrated through the intragastric route with donepezil hydrochloride by 1.75 mg/kg (equivalent to 3.85 times the clinical daily dosage of 5 mg/70 kg), the low, medium and high-dose groups of Crystal Form A of octahydroaminoacridine succinate were administrated through the intragastric route with Crystal Form A of octahydroaminoacridine succinate by 0.7, 1.4 and 2.8 mg/kg (equivalent to 0.96, 1.92 and 3.85 times the clinical daily dosage of 8 mg/70 kg). The water maze test and the step-down test were carried out after continuous administration for 7 days, and the administration was continued during the test period. The water maze test was continuously performed for 7 days, in the first 6 days, in four different water entry points of quadrants 1, 2, 3 and 4, the time, the swimming path length, the orientation angle and the average speed of the rat reaching the platform were measured, meanwhile, the strategy for reaching the platform adopted by rats was observed, on the 7th day, the platform was removed, the number of rats crossing the platform in 2 minutes, the residence time in the platform area, the residence time in the platform quadrants, the percentage of the swimming path length in the platform area quadrants to the total swimming path length, the average speed and the orientation angle were measured. After the water maze test was finished, the step-down test was performed, and the number of electric shocks (or called as the error number) received by each rat within 5 minutes was recorded as the learning performance. The test was performed again after 24 hours, namely, the memory retention test, and the latent period for stepping-down the platform for the first time and the error number in five minutes were recorded. After the step-down test was finished, the brain was taken quickly for pathological examination, and the pathological changes of the hippocampus and the cortex were observed.
# [2] = test system: rats with common carotid artery occlusion-induced vascular dementia; test: Step-down test, common carotid artery occlusion-induced vascular dementia rats; assay type: in vivo, rat; conditions: for Day 1, Error number / Day 2, Error latency / Day 2, Error number: step-down method, x ± s, succinate
# Text: as §1
# [3] = Day 4, 2.8 mg/kg intragastric, 2.8 mg/kg
# [4] = Day 5, 0.7 mg/kg intragastric, 0.7 mg/kg
# [5] = Day 5, 1.4 mg/kg intragastric, 1.4 mg/kg
# [6] = Day 5, 2.8 mg/kg intragastric, 2.8 mg/kg
# [7] = Day 6, 0.7 mg/kg intragastric, 0.7 mg/kg
# [8] = Day 6, 1.4 mg/kg intragastric, 1.4 mg/kg
# [9] = Day 6, 2.8 mg/kg intragastric, 2.8 mg/kg
# [10] = 0.7 mg/kg intragastric, 0.7 mg/kg
# [11] = 1.4 mg/kg intragastric, 1.4 mg/kg
# [12] = 2.8 mg/kg intragastric, 2.8 mg/kg
smiles,measurement,setting,value
"Nc1c2c(nc3c1CCCC3)CCCC2.O=C(O)CCC(=O)O [Crystal Form A, 9-amino-1,2,3,4,5,6,7,8-octahydroacridine succinate]",orientation angle for reaching the platform,[1]; [3],57.00 ± 17.94 °
same,speed for reaching the platform,[1]; [3],27.72 ± 6.59 cm/s
same,swimming path length for reaching the platform,[1]; [3],827.58 ± 463.98 cm
same,time for reaching the platform,[1]; [3],22.79 ± 10.04 s
same,adopted strategy for reaching the platform (the peripheral type and the random type %),[1]; [4],67.00%
same,orientation angle for reaching the platform,[1]; [4],62.38 ± 27.61 °
same,speed for reaching the platform,[1]; [4],24.14 ± 7.38 cm/s
same,swimming path length for reaching the platform,[1]; [4],878.23 ± 464.48 cm
same,time for reaching the platform,[1]; [4],71.16 ± 34.92 s
same,adopted strategy for reaching the platform (the peripheral type and the random type %),[1]; [5],60.00%
same,orientation angle for reaching the platform,[1]; [5],55.03 ± 19.71 °
same,speed for reaching the platform,[1]; [5],29.15 ± 10.97 cm/s
same,swimming path length for reaching the platform,[1]; [5],515.67 ± 565.72 cm
same,time for reaching the platform,[1]; [5],16.28 ± 11.42 s
same,adopted strategy for reaching the platform (the peripheral type and the random type %),[1]; [6],57.50%
same,orientation angle for reaching the platform,[1]; [6],55.78 ± 27.48 °
same,speed for reaching the platform,[1]; [6],27.44 ± 4.86 cm/s
same,swimming path length for reaching the platform,[1]; [6],676.75 ± 429.93 cm
same,time for reaching the platform,[1]; [6],21.57 ± 17.15 s
same,adopted strategy for reaching the platform (the peripheral type and the random type %),[1]; [7],66.60%
same,orientation angle for reaching the platform,[1]; [7],46.48 ± 22.04 °
same,speed for reaching the platform,[1]; [7],22.02 ± 6.73 cm/s
same,swimming path length for reaching the platform,[1]; [7],606.62 ± 360.87 cm
same,time for reaching the platform,[1]; [7],37.72 ± 30.12 s
same,adopted strategy for reaching the platform (the peripheral type and the random type %),[1]; [8],60.00* %
same,orientation angle for reaching the platform,[1]; [8],53.94 ± 12.47 °
same,speed for reaching the platform,[1]; [8],23.52 ± 2.43 cm/s
same,swimming path length for reaching the platform,[1]; [8],393.13 ± 236.85 cm
same,time for reaching the platform,[1]; [8],16.62 ± 8.69 s
same,adopted strategy for reaching the platform (the peripheral type and the random type %),[1]; [9],55.00* %
same,orientation angle for reaching the platform,[1]; [9],52.70 ± 15.27 °
same,speed for reaching the platform,[1]; [9],23.55 ± 2.66 cm/s
same,swimming path length for reaching the platform,[1]; [9],433.81 ± 327.88 cm
same,time for reaching the platform,[1]; [9],18.98 ± 13.68 s
same,Average speed,[1]; [10],24.04 ± 7.96 cm/s
same,Number of crossing the platform,[1]; [10],5.55 ± 4.47
same,Orientation angle,[1]; [10],5.56 ± 4.47 °
same,Swimming path length in the platform area/total swimming path length × 100%,[1]; [10],26.83 ± 7.77%
same,Time in the platform area,[1]; [10],1.86 ± 1.78 s
same,Time in the platform quadrants,[1]; [10],33.93 ± 11.68 s
same,Average speed,[1]; [11],28.44 ± 9.02 cm/s
same,Number of crossing the platform,[1]; [11],12.20 ± 5.99
same,Orientation angle,[1]; [11],12.20 ± 5.99 °
same,Swimming path length in the platform area/total swimming path length × 100%,[1]; [11],31.89 ± 9.92%
same,Time in the platform area,[1]; [11],3.18 ± 2.02 s
same,Time in the platform quadrants,[1]; [11],40.31 ± 12.72 s
same,Average speed,[1]; [12],26.15 ± 5.40 cm/s
same,Number of crossing the platform,[1]; [12],10.40 ± 4.40
same,Orientation angle,[1]; [12],10.40 ± 4.40 °
same,Swimming path length in the platform area/total swimming path length × 100%,[1]; [12],28.40 ± 8.75%
same,Time in the platform area,[1]; [12],3.23 ± 3.70 s
same,Time in the platform quadrants,[1]; [12],33.72 ± 10.48 s
same,step-down error number vs model group,"[2]; 1.4 mg/kg, Day 2, P<0.05",obviously reduced
same,step-down error number vs model group,"[2]; 2.8 mg/kg, Day 1 and Day 2, P<0.05",obviously reduced
same,error latency vs model group,"[2]; 2.8 mg/kg, Day 2, P<0.05",obviously prolonged
same,"Day 1, Error number",[2]; [10],7.50 ± 4.06
same,"Day 2, Error latency",[2]; [10],215.30 ± 83.07 s
same,"Day 2, Error number",[2]; [10],1.70 ± 1.49
same,"Day 1, Error number",[2]; [11],6.60 ± 2.88
same,"Day 2, Error latency",[2]; [11],223.70 ± 75.02 s
same,"Day 2, Error number",[2]; [11],1.30 ± 1.25
same,"Day 1, Error number",[2]; [12],5.80 ± 2.65
same,"Day 2, Error latency",[2]; [12],250.10 ± 72.32 s
same,"Day 2, Error number",[2]; [12],0.90 ± 1.28

# From patent US12215085B2 (priority 2019, dated 2025)
